Structures can show the parent of a compound that is named as a salt.
tested on: Acinetobacter baumannii ATCC17961; experiment: Antimicrobial susceptibility testing: 90% growth inhibitory concentration (IC90) determination in Iso-Sensitest broth, OD600 growth; format: cell-based; settings: Acinetobacter baumannii, ATCC17961, 16 h, read-out: A. baumannii ATCC 17961 IC90 (uM), strain ATCC 17961, OD600 growth over 16 h
Procedure, shortened: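 Growth monitored at 600 nm every 20 min for 16 h at 35±2 °C, inoculum ~5×10^(5) CFU/ml in Iso-Sensitest medium. Compounds in 10-point twofold series, e.g. 50 to 0.097 μM final; 90% inhibitory concentration taken from log-phase growth.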

SMILES	IC90 [µM]
N#CCn1cc(-c2cnc3c(Nc4ccc(C(=O)NCC(=O)N5CC(N)C5)c(Cl)c4)nccn23)c(C(F)(F)F)n1 [Example 713, N-[2-(3-aminoazetidin-1-yl)-2-oxo-ethyl]-2-chloro-4-[[3-[1-(cyanomethyl)-3-(trifluoromethyl)pyrazol-4-yl]imidazo[1,2-a]pyrazin-8-yl]amino]benzamide formate]	0.417
CCc1cc(Nc2nccn3c(-c4cn(CC#N)nc4C(F)(F)F)cnc23)ccc1C(=O)NCC(=O)N1CC(N)C1 [Example 716, N-[2-(3-aminoazetidin-1-yl)-2-oxo-ethyl]-4-[[3-[1-(cyanomethyl)-3-(trifluoromethyl)pyrazol-4-yl]imidazo[1,2-a]pyrazin-8-yl]amino]-2-ethyl-benzamide formate]	0.426
CCc1cc(Nc2nccn3c(-c4cn(CC(F)F)nc4C(F)(F)F)cnc23)ccc1C(=O)NCCOCCN1CCOCC1 [Example 717, 4-((3-(1-(2,2-difluoroethyl)-3-(trifluoromethyl)-1H-pyrazol-4-yl)imidazo[1,2-a]pyrazin-8-yl)amino)-2-ethyl-N-(2-(2-morpholinoethoxy)ethyl)benzamide formate]	0.434
CCc1cc(Nc2nccn3c(-c4c[nH]nc4C(F)(F)F)cnc23)ccc1C(=O)NCCNC(=O)[C@H](C)N [Example 718, (S)-N-(2-(2-aminopropanamido)ethyl)-2-ethyl-4-((3-(3-(trifluoromethyl)-1H-pyrazol-4-yl)imidazo [1,2-a]pyrazin-8-yl)amino)benzamide formate]	0.435
Cc1cc(Nc2nccn3c(-c4cn(CC#N)nc4C(F)(F)F)cnc23)cc(F)c1C(=O)N1CCN(C(=O)[C@@H]2C[C@@H](O)CN2)CC1 [Example 721, 2-(4-(8-((3-fluoro-4-(4-((2S,4R)-4-hydroxypyrrolidine-2-carbonyl)piperazine-1-carbonyl)-5-methylphenyl)amino)imidazo[1,2-a]pyrazin-3-yl)-3-(trifluoromethyl)-1H-pyrazol-1-yl) acetonitrile formate]	0.452

same assay, conditions: Acinetobacter baumannii, ATCC17961, 16 h, strain ATCC 17961, OD600 growth over 16 h, read-out: A. baumannii ATCC 17961 IC90

SMILES	IC90 [µM]
Cc1cc(Nc2nccn3c(-c4cn(CCF)nc4C(F)(F)F)cnc23)cc(F)c1C(=O)N1CCN(C(=O)[C@H]2CC[C@H](O)N2)CC1 [Example 714, (4-(2-fluoro-4-((3-(1-(2-fluoroethyl)-3-(trifluoromethyl)-1H-pyrazol-4-yl)imidazo[1,2-a]pyrazin-8-yl)amino)-6-methylbenzoyl)piperazin-1-yl)((2R,5S)-5-hydroxypyrrolidin-2-yl)methanone]	0.422
Cc1cc(Nc2nccn3c(-c4cn(CC#N)nc4C(F)(F)F)cnc23)cc(F)c1C(=O)N1CCN(C(=O)[C@H]2CC[C@H](O)N2)CC1 [Example 715, 2-(4-(8-((3-fluoro-4-(4-((2R,5S)-5-hydroxypyrrolidine-2-carbonyl)piperazine-1-carbonyl)-5-methylphenyl)amino)imidazo[1,2-a]pyrazin-3-yl)-3-(trifluoromethyl)-1H-pyrazol-1-yl) acetonitrile]	0.422
Cc1cc(Nc2nccn3c(-c4cn(CC#N)nc4C(F)(F)F)cnc23)cc(F)c1C(=O)N[C@H](C)CN [Example 719, (R)-N-(1-aminopropan-2-yl)-4-((3-(1-(cyanomethyl)-3-(trifluoromethyl)-1H-pyrazol-4-yl)imidazo[1,2-a]pyrazin-8-yl)amino)-2-fluoro-6-methylbenzamide]	0.435
Cc1cc(Nc2nccn3c(-c4cn(CC#N)nc4C(F)(F)F)cnc23)cc(F)c1C(=O)N[C@H](C)CNC(=O)[C@H]1[C@@H]2CNC[C@@H]21 [Example 720, (1R,5S,6r)-N-((R)-2-(4-((3-(1-(cyanomethyl)-3-(trifluoromethyl)-1H-pyrazol-4-yl)imidazo[1,2-a]pyrazin-8-yl)amino)-2-fluoro-6-methylbenzamido)propyl)-3-azabicyclo[3.1.0] hexane-6-carboxamide formate]	0.441

Reference: patent publication US20230203043A1, “NOVEL IMIDAZOPYRAZINE DERIVATIVES” (Hoffmann-La Roche Inc., priority 2020, published 2023)
